Results on one sequence are retold here after publication PMC9296036, “A peptide interfering with the dimerization of oncogenic KITENIN protein and its stability suppresses colorectal tumour progression” (Clinical and Translational Medicine, 2022).

The subject of the assay is CT-26/EV tumours. The assay is described as follows: Syngeneic subcutaneous tumour model, CT-26/EV cells in BALB/c mice. In kind it is in vivo, mouse. The settings on record: CT-26/EV (no forced KITENIN overexpression), KDIP 1 mg/kg intravenously alternate days for 14 days. The method, then:
The CT‐26 cell/syngeneic mouse model was used to investigate the in vivo effects of KDIP on colorectal tumourigenesis, as it is reported that a syngeneic mouse tumour model is good for testing the anticancer effects of candidate substances.[25], [26] Male Balb/c mice (5‐week old) were purchased from DaMul Science, Korea and acclimated for 1 week prior to subcutaneous injection of syngeneic CT‐26/EV (3 × 10^6) or CT‐26/KITENIN cells (1 × 10^6) into the dorsum. Tumour volume was calculated using the following equation: V = 1/2 × a × b […], where a and b are the longest and shortest diameters of the tumour (in millimetres), respectively. Tumour volume was measured every other day for 14 days to verify the effects of KDIP. All mice were sacrificed after Day 30 (Figure 7B), and the subcutaneous tumour grafts were surgically excised and weighed.
For the experimental tumour model, CT‐26/EV or CT‐26/KITENIN‐V5 cells were injected into the right back of BALB/c mice to form tumours, and KDIP was injected intravenously according to the timeline shown in Figure 7B. Considering the suppressive effect of KDIP on the cell invasion of CT‐26 cells, the initial test dosage was set to 1 mg/kg, which is equivalent to the half‐maximal inhibitory concentration (IC50) of KDIP on cell invasion. […] After 2 weeks of treatment, the mice were sacrificed and the tumours were analysed. […]

“Also recorded” adds a separate entry of the source. Ends that are not written are not given here.

Take YARVRRRGPRRWRLVSDEAV [KDIP]: the “tumour growth (in words)” value is recorded as “little effect on tumor growth; also recorded: little effect on tumour growth”.
